Assay results taken from patent US10428081B2, “EGFR inhibitor, preparation method and use thereof” (Shanghai Hansoh Biomedical Co., Ltd., priority 2014, dated 2019).

How the values were obtained:
[1] = biological target: exon 20 T790M mutant-type EGFR enzyme (Homo sapiens, UniProt P00533, T790M); assay: Enzymologic experiment of T790M mutant-type EGFR (TR-FRET); assay type: biochemical; settings: for IC50: T790M EGFR enzyme, TR-FRET, ATP 1 to 10 uM; for Selectivity of wild-type/mutant-type: ratio WT IC50 / T790M IC50, enzyme
Outline: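 Compound dilutions preincubated 10 min at room temperature; reaction ended with EDTA, then labeled antibody added for 1 h at room temperature. Inhibition rates derived from TR-FRET fluorescence signal, and IC50 obtained by curve fitting across concentrations.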

A431 cells = assay: Inhibition of A431 cell proliferation (CellTiter-Glo); assay type: cell-based; settings: Homo sapiens, A-431, 72 h, read-out: EGFR IC50 (nM) A431
Protocol: 4. Experiment on the Inhibition of A431 Cell Proliferation
In this experiment, the inhibitory effect of the compounds on A431 cell proliferation was tested by a CellTiter-Glo method, and the half maximal inhibitory concentration (IC50) of the compounds on the activity of cell proliferation was determined.
The culture plate was incubated in the incubator for 16 to 24 hours (37° C., 5% CO2).
2) Different concentrations of the test compound in a gradient dilution were added to the cells in the culture plate. The culture plate was incubated in an incubator for 72 hours (37° C., 5% CO2).
3) 50 to 100 μL of CellTiter-Glo reagent was added to each well. Then the culture plate was shaken for 10 minutes, and left to stand at room temperature for 10 minutes.
4) The chemiluminescence signal values of each plate were determined by a microplate reader.
5) The inhibition rates were calculated according to the chemiluminescence signal values. 6) The IC50 of the compound was obtained by curve fitting according to the inhibition rates at different concentrations.

wild-type EGFR enzyme = wild-type EGFR enzyme (Homo sapiens, UniProt P00533); assay: Enzymologic experiment of wild-type (WT) EGFR (TR-FRET); assay type: biochemical; settings: ATP 0.1 to 5 uM
Outline: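 Wild-type EGFR (0.1 to 1 nM final) preincubated with serially diluted compound for 10 minutes at room temperature; reaction stopped with EDTA, then labelled antibody added for 1 hour at room temperature. TR-FRET signal converted to inhibition rates; IC50 from curve fitting across concentrations.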

NCI-H1975 cells = assay: Inhibition of NCI-H1975 cell proliferation (CellTiter-Glo); assay type: cell-based; settings: for IC50: Homo sapiens, NCI-H1975, 72 h, NCI-H1975 cell proliferation, 72 hours, CellTiter-Glo, read-out: EGFR IC50 (nM) H1975; for Selectivity of wild-type/mutant-type: ratio A431 IC50 / H1975 IC50, cells

Chain of exon 20 T790M mutant-type EGFR enzyme (P00533 25-1210 T790M): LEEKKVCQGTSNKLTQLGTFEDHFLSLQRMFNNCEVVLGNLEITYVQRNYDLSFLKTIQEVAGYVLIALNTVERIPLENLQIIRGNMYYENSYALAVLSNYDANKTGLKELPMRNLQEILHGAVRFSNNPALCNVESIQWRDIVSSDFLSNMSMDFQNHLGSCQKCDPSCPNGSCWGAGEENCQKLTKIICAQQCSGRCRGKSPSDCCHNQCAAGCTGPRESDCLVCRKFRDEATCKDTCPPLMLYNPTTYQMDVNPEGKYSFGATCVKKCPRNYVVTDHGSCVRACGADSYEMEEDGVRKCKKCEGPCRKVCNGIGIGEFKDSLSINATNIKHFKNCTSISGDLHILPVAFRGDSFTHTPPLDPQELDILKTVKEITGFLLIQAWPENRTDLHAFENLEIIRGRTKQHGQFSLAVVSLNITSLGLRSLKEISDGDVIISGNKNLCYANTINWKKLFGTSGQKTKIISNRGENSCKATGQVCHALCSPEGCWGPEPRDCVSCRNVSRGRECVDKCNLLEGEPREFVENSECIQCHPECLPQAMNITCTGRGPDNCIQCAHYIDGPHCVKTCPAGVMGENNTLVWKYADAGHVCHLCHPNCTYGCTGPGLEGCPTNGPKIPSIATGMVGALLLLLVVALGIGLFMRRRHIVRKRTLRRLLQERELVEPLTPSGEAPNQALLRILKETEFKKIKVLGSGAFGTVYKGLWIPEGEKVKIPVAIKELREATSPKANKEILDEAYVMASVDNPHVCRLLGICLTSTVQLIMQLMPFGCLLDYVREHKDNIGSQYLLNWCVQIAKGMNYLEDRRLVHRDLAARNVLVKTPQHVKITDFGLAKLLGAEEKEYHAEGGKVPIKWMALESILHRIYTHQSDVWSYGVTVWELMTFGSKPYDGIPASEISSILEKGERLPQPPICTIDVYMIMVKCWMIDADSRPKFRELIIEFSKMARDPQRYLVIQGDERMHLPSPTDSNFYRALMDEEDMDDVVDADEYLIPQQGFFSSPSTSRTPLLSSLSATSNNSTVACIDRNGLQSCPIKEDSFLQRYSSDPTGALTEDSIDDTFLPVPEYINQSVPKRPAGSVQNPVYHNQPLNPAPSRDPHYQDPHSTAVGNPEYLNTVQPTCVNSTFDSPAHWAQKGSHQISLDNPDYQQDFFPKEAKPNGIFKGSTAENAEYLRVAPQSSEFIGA
Chain of wild-type EGFR enzyme (P00533 25-1210): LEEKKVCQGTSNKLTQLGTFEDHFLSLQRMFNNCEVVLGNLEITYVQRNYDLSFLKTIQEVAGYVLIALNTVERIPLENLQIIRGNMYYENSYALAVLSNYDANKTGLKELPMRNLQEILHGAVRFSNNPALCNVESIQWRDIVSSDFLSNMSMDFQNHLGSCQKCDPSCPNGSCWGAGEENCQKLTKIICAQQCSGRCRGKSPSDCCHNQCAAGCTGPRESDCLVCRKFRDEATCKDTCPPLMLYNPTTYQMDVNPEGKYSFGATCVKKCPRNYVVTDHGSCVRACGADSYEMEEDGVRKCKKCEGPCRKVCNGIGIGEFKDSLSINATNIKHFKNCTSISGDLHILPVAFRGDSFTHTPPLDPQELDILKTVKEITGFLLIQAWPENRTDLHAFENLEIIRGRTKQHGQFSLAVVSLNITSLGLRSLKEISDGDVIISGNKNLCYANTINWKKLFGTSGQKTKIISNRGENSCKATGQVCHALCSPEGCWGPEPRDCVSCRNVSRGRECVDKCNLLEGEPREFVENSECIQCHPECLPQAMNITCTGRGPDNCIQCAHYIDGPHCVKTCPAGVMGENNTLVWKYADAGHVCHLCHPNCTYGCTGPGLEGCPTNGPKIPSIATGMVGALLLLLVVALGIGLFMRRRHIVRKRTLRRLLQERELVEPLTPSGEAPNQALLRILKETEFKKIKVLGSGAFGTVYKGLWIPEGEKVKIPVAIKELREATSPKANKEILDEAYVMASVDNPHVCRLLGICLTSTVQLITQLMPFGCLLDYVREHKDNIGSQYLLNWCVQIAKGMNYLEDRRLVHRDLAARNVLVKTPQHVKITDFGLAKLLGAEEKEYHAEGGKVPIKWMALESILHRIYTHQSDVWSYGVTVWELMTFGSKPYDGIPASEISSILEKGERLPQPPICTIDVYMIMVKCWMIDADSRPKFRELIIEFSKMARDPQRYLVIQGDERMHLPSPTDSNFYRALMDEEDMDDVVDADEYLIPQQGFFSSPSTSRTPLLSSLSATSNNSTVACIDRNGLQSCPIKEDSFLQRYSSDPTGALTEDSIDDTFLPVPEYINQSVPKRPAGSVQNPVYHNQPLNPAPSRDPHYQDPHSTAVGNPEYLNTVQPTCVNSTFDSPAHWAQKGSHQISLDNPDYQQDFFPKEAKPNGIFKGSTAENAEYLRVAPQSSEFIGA

SMILES | IC50 [1] | Selectivity of wild-type/mutant-type [1] | IC50 (A431 cells) | IC50 (wild-type EGFR enzyme) | IC50 (NCI-H1975 cells) | Selectivity of wild-type/mutant-type (NCI-H1975 cells)
C=CC(=O)Nc1cc(Nc2nccc(-c3cn4c5c(cccc35)CCC4)n2)c(OC)cc1N(C)CCN(C)C [Example 125, N-(5-((4-(5,6-dihydro-4H-pyrrolo[3,2,1-ij]quinolin-1-yl)pyrimidin-2-yl)amino)-2-((2-(dimethylamino)ethyl)(methyl)amino)-4-methoxyphenyl)acrylamide] | 1.42 nM | 9.15 | 385 nM | 13 nM | 9.58 nM | 40.18
C=CC(=O)Nc1cc(Nc2nccc(-n3ncc4cc(C#N)ccc43)n2)c(OC)cc1N(C)CCN(C)C [Example 50, N-(5-((4-(5-cyano-1H-indazol-1-yl)pyrimidin-2-yl)amino)-2-((2-(dimethylamino)ethyl)(methyl)amino)-4-methoxyphenyl)acrylamide] | 0.66 nM | 9.68 | 503 nM | 6.39 nM | 6.14 nM | 81.87
C=CC(=O)Nc1cc(Nc2nccc(-c3cn(C)c4c(C5CC5)cccc34)n2)c(OC)cc1N(C)CCN(C)C [Example 91, N-(5-((4-(7-cyclopropyl-1-methyl-1H-indol-3-yl)pyrimidin-2-yl)amino)-2-((2-(dimethylamino)ethyl)(methyl)amino)-4-methoxyphenyl)acrylamide] | 2.25 nM | 6.54 | 558 nM | 14.7 nM | 25.9 nM | 21.49
C=CC(=O)Nc1cc(Nc2nccc(-c3cn(C4CC4)c4ccccc34)n2)c(OC)cc1N(C)CCN1CCCC1 [Example 123, N-(5-((4-(1-cyclopropyl-1H-indol-3-yl)pyrimidin-2-yl)amino)-4-methoxy-2-(methyl(2-(pyrrolidin-1-yl)ethyl)amino)phenyl)acrylamide] | 1.28 nM | 21.23 | 527 nM | 27.2 nM | 14.9 nM | 35.37
C=CC(=O)Nc1cc(Nc2ncc(C(F)(F)F)c(-n3nc(C4CC4)c4cc(OC)ccc43)n2)c(OC)cc1N(C)CCN(C)C [Example 114, N-(5-((4-(3-cyclopropyl-5-methoxy-1H-indazol-1-yl)-5-(trifluoromethyl)pyrimidin-2-yl)amino)-2-((2-(dimethylamino)ethyl)(methyl)amino)-4-methoxyphenyl)acrylamide] | 2.28 nM | 18.40 | 122 nM | 42 nM | 11.6 nM | 10.47
C=CC(=O)Nc1cc(Nc2nccc(-c3cn(C)c4cc(C=C)ccc34)n2)c(OC)cc1N(C)CCN(C)C [Example 96, N-(2-((2-(dimethylamino)ethyl)(methyl)amino)-4-methoxy-5-((4-(1-methyl-6-vinyl-1H-indol-3-yl)pyrimidin-2-yl)amino)phenyl)acrylamide] | 1.57 nM | 5.67 | 324 nM | 8.9 nM | 17.5 nM | 18.51

Compounds with a lower IC50 [1], results first:

IC50 [1] | Selectivity of wild-type/mutant-type [1] | IC50 (A431 cells) | IC50 (wild-type EGFR enzyme) | IC50 (NCI-H1975 cells) | SMILES | Selectivity of wild-type/mutant-type (NCI-H1975 cells)
0.48 nM | 1.71 | 76.3 nM | 0.82 nM | 5 nM | C=CC(=O)Nc1cc(Nc2nccc(-n3ncc4ccc(OC)cc43)n2)c(OC)cc1N(C)CCN(C)C [Example 42, N-(2-((2-(dimethylamino)ethyl)(methyl)amino)-4-methoxy-5-((4-(6-methoxy-1H-indazol-1-yl)pyrimidin-2-yl)amino)phenyl)acrylamide] | 15.25
0.44 nM | 9.50 | 377 nM | 4.18 nM | 8.29 nM | C=CC(=O)Nc1cc(Nc2ncc(C(F)(F)F)c(-c3cn(S(=O)(=O)N(C)C)c4cc(OC)ccc34)n2)c(OC)cc1N(C)CCN(C)C [Example 143, N-(2-((2-(dimethylamino)ethyl)(methyl)amino)-5-((4-(1-(N,N-dimethylsulfamoyl)-6-methoxy-1H-indol-3-yl)-5-(trifluoromethyl)pyrimidin-2-yl)amino)-4-methoxyphenyl)acrylamide] | 45.44
0.42 nM | 8.8 | 56.2 nM | 3.64 nM | 5.21 nM | C=CC(=O)Nc1cc(Nc2nccc(-c3c[nH]c4ccccc34)n2)c(OC(F)F)cc1N(C)CCN(C)C [Example 8, N-(5-((4-(1H-indol-3-yl)pyrimidin-2-yl)amino)-4-(difluoromethoxy)-2-((2-(dimethylamino)ethyl)(methyl)amino)phenyl)acrylamide] | 10.8
0.37 nM | 10.65 | 101 nM | 3.94 nM | 4.98 nM | C=CC(=O)Nc1cc(Nc2ncc(Cl)c(-n3nc(C4CC4)c4cc(OC)ccc43)n2)c(OC)cc1N(C)CCN(C)C [Example 115, N-(5-((5-chloro-4-(3-cyclopropyl-5-methoxy-1H-indazol-1-yl)pyrimidin-2-yl)amino)-2-((2-(dimethylamino)ethyl)(methyl)amino)-4-methoxyphenyl)acrylamide] | 20.34
0.36 nM | 4.50 | 233 nM | 1.62 nM | 3.17 nM | C=CC(=O)Nc1cc(Nc2nccc(-n3nc(C4CC4)c4cc(OC)ccc43)n2)c(OC)cc1N(C)CCN(C)C [Example 113, N-(5-((4-(3-cyclopropyl-5-methoxy-1H-indazol-1-yl)pyrimidin-2-yl)amino)-2-((2-(dimethylamino)ethyl)(methyl)amino)-4-methoxyphenyl)acrylamide] | 73.42
0.24 nM | 10.5 | 102 nM | 2.52 nM | 1.75 nM | C=CC(=O)Nc1cc(Nc2ncc(Cl)c(-n3ncc4cc(OC)ccc43)n2)c(OC)cc1N(C)CCN(C)C [Example 48, N-(5-((5-chloro-4-(5-methoxy-1H-indazol-1-yl)pyrimidin-2-yl)amino)-2-((2-(dimethylamino)ethyl)(methyl)amino)-4-methoxyphenyl)acrylamide] | 58.06
0.24 nM | 6.71 | 98.6 nM | 1.61 nM | 1.95 nM | C=CC(=O)Nc1cc(Nc2nccc(-c3cn(S(=O)(=O)N(C)C)c4ccccc34)n2)c(OC)cc1N(C)CCN(CC)CC [Example 103, N-(2-((2-(diethylamino)ethyl)(methyl)amino)-5-((4-(1-(N,N-dimethylsulfamoyl)-1H-indol-3-yl)pyrimidin-2-yl)amino)-4-methoxyphenyl)acrylamide] | 50.55
0.16 nM | 2.5 | 9.22 nM | 0.4 nM | 1.95 nM | C=CC(=O)Nc1cc(Nc2nccc(-c3c[nH]c4c(C5CC5)cccc34)n2)c(OC)cc1N(C)CCN(C)C [Example 92, N-(5-((4-(7-cyclopropyl-1H-indol-3-yl)pyrimidin-2-yl)amino)-2-((2-(dimethylamino)ethyl)(methyl)amino)-4-methoxyphenyl)acrylamide] | 4.73
